How the values were obtained:
[1] = tested on: A375 cells; assay: A375 Cell Proliferation Assay (1); type: cell-based; settings: Homo sapiens, A-375
Outline: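 Resazurin fluorescence (excitation 540 nm, emission 600 nm, after a further 5-6 h) gave IC50s from triplicate compound dilution series.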

[2] = target: B-Raf kinase (SEQ. ID NO: 2) (Homo sapiens (Human), UniProt P15056); assay: Biochemical Assay for B-Raf (1); settings: Table J, assay version (1); read-out: BRAF (1) IC50
Outline: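 IC50 derived by four-parameter sigmoidal fit of percent inhibition, normalised to uninhibited and reference-inhibitor controls, using reaction rates over 4–5 h. Coupled spectrophotometric readout (NADH loss at 340 nm, 6 h, 30° C.); 1 mM ATP, 30.1 nM MEK, 0.13 nM B-Raf, pH 7.5 Tris buffer, 1% DMSO.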

[3] = target: A-Raf kinase (SEQ. ID No: 1) (Homo sapiens (Human), UniProt P10398, Y301D/Y302D); assay: Biochemical Assay for A-Raf (1); settings: Table J, assay version (1); read-out: ARAF (1) IC50
Outline: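 IC50 values were derived by four-parameter sigmoidal fitting of percent inhibition, calculated from reaction rates over the 4–5 h window. Absorbance at 340 nm was tracked for 6 h at 30 °C via coupled PK/LDH NADH depletion. Conditions: 1 mM ATP, 30.1 nM MEK substrate, 5.55 nM A-Raf (Y301D/Y302D), Tris pH 7.5, 1% DMSO.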

[4] = target: C-Raf kinase (SEQ. ID NO: 3) (Homo sapiens (Human), UniProt P04049, Y340D/Y341D); assay: Biochemical Assay for C-Raf (1); settings: Table J, assay version (1); read-out: CRAF (1) IC50
Outline: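 IC50 values come from a four-parameter fit of percent inhibition, using the reaction rate over 4–5 h of a 6 h continuous 340 nm read at 30 °C. The enzyme mix was C-Raf 0.43 nM, MEK substrate 30.1 nM and ATP 1 mM, in a PK/LDH NADH-coupled format in Tris pH 7.5 with 1% DMSO.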

Chain of C-Raf kinase (SEQ. ID NO: 3) (P04049 307-648 Y340D/Y341D): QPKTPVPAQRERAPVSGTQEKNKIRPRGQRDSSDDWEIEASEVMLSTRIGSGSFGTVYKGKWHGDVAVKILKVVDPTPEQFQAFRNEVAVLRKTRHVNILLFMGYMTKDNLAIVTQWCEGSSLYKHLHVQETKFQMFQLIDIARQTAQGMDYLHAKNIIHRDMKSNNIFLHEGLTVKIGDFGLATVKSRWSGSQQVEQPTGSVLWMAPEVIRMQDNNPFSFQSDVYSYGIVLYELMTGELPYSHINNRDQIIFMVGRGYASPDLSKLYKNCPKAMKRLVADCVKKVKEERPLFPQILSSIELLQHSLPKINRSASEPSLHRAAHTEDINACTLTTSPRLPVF
Chain of A-Raf kinase (SEQ. ID No: 1) (P10398 other isoform, or with tags, fused parts or gaps Y301D (already in the parent)/Y302D (already in the parent)): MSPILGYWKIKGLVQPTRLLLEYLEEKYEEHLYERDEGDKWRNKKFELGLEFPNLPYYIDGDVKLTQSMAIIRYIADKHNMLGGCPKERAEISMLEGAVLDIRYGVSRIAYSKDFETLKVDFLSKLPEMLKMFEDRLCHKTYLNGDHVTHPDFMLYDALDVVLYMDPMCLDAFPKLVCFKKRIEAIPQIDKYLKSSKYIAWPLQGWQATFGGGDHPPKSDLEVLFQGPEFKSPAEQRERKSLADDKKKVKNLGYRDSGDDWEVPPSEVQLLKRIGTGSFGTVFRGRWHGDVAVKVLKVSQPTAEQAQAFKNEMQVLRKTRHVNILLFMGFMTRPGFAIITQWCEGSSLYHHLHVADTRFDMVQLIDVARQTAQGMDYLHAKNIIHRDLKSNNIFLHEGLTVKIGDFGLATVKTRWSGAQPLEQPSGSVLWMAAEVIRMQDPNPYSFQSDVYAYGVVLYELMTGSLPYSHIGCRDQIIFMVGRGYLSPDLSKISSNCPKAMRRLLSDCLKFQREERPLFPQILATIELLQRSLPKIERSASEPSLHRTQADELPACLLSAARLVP
Chain of B-Raf kinase (SEQ. ID NO: 2) (P15056 416-766): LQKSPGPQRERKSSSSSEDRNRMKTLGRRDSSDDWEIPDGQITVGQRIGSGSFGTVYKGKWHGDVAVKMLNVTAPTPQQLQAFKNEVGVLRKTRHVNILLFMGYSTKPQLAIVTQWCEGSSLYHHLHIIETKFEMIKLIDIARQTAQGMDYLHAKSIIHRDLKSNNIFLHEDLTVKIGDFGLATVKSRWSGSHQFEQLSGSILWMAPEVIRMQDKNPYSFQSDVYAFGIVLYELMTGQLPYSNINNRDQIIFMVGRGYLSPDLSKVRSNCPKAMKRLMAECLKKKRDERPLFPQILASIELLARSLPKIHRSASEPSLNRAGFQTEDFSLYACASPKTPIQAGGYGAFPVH

| SMILES | IC50 [1] [nM] | IC50 [2] [nM] | IC50 [3] [nM] | IC50 [4] [nM] |
| --- | --- | --- | --- | --- |
| Cc1nc(-c2ccnc(NC(=O)C3CC3)c2)cc(-c2cc(NC(=O)c3ccnc(C4CC4)c3)cnc2C)n1 [Example 287] | 1000 to 10000 | ≤ 100 | 1000 to 10000 | ≤ 100 |
| COC(=O)Nc1cc(-c2cccc(-c3cc(NC(=O)c4ccnc(C5CC5)c4)cnc3C)c2)ccn1 [Example 288] | 1000 to 10000 | ≤ 100 | 1000 to 10000 | ≤ 100 |
| COC(=O)Nc1nccc(-c2cccc(-c3cc(NC(=O)c4ccnc(C(C)(C)C#N)c4)cnc3C)c2)n1 [Example 290] | 1000 to 10000 | 500 to 1000 | 1000 to 10000 | 100 to 500 |
| Cc1ncc(NC(=O)c2ccnc(C3CC3)c2)cc1-c1cccc(-c2cc(NC(=O)C3CC3)ncn2)c1 [Example 291] | 100 to 500 | ≤ 100 | 1000 to 10000 | ≤ 100 |
| Cc1ncc(NC(=O)c2cnnc(C3CC3)c2)cc1-c1nccc(-c2ccnc(NC(=O)C3CC3)c2)n1 [Example 294] | 1000 to 10000 | ≤ 100 | 1000 to 10000 | ≤ 100 |
| Cc1ncc(NC(=O)c2ccnc(C3CC3)c2)cc1-c1nccc(-c2ccnc(NC(=O)C3CC3)c2)n1 [Example 295] | 500 to 1000 | ≤ 100 | 1000 to 10000 | ≤ 100 |
| COC(=O)Nc1cc(-c2cc(-c3cc(NC(=O)c4ccnc(C(C)(C)C#N)c4)cnc3C)ccn2)ccn1 [Example 297] | ≤ 100 | ≤ 100 | 1000 to 10000 | ≤ 100 |
| Cc1cc(F)c(NC(=O)c2ccnc(C(C)(C)C#N)c2)cc1-c1cc(-c2ccnc(NC(=O)C3CC3)c2)cnn1 [Example 298] | 100 to 500 | ≤ 100 | 1000 to 10000 | ≤ 100 |
| COC(=O)Nc1cc(-c2cnnc(-c3cc(NC(=O)c4ccnc(C(C)(C)C#N)c4)c(F)cc3C)c2)ccn1 [Example 299] | 100 to 500 | ≤ 100 | 1000 to 10000 | ≤ 100 |
| Cc1cc(F)c(NC(=O)c2ccnc(C(C)(C)F)c2)cc1-c1ccnc(-c2ccnc(NC(=O)C3CC3)c2)c1 [Example 300] | ≤ 100 | ≤ 100 | 1000 to 10000 | ≤ 100 |
| Cc1ncc(NC(=O)c2ccnc(C(C)(C)C#N)c2)cc1-c1cccc(-c2ccnc(C(N)=O)c2)c1 [Example 301] | 100 to 500 | ≤ 100 | 1000 to 10000 | ≤ 100 |
| COC(=O)Nc1cc(-c2cc(-c3cc(NC(=O)c4ccnc(C(C)(C)F)c4)c(F)cc3C)ccn2)ccn1 [Example 302] | ≤ 100 | ≤ 100 | 1000 to 10000 | ≤ 100 |
| COC(=O)Nc1cc(-c2nccc(-c3cc(NC(=O)c4ccnc(C(C)(C)C#N)c4)c(F)cc3C)n2)ccn1 [Example 303] | ≤ 100 | ≤ 100 | 1000 to 10000 | ≤ 100 |
| COC(=O)Nc1cc(-c2nccc(-c3cc(NC(=O)c4ccnc(C(C)(C)F)c4)c(F)cc3C)n2)ccn1 [Example 304] | 100 to 500 | ≤ 100 | 1000 to 10000 | ≤ 100 |
| COC(=O)Nc1cc(-c2cnnc(-c3cc(NC(=O)c4ccnc(C(C)(C)C#N)c4)ccc3C)c2)ccn1 [Example 305] | 100 to 500 | ≤ 100 | 1000 to 10000 | ≤ 100 |
| COC(=O)Nc1cc(-c2cnnc(-c3cc(NC(=O)c4ccnc(C(C)(C)C#N)c4)cnc3C)c2)ccn1 [Example 306] | 1000 to 10000 | 100 to 500 | 1000 to 10000 | 100 to 500 |
| Cc1cc(F)c(NC(=O)c2ccnc(C(F)F)c2)cc1-c1ccnc(-c2ccnc(NC(=O)C3CC3)c2)c1 [Example 307] | 500 to 1000 | ≤ 100 | 500 to 1000 | ≤ 100 |
| COC(=O)Nc1cc(-c2cc(-c3cc(NC(=O)c4ccnc(C(C)(C)C#N)c4)c(F)cc3C)ccn2)ccn1 [Example 308] | ≤ 100 | ≤ 100 | 1000 to 10000 | ≤ 100 |
| CNC(=O)c1cc(-c2cnnc(-c3cc(NC(=O)c4ccnc(C(C)(C)F)c4)cnc3C)c2)ccn1 [Example 309] | 1000 to 10000 | 1000 to 10000 | 1000 to 10000 | 100 to 500 |
| Cc1ncc(NC(=O)c2ccnc(C(C)(C)F)c2)cc1-c1cc(-c2ccnc(NC(=O)C3CC3)c2)cnn1 [Example 310] | 100 to 500 | ≤ 100 | 1000 to 10000 | ≤ 100 |

| SMILES | IC50 [1] [nM] | IC50 [2] [nM] | IC50 [3] [nM] | IC50 [4] [nM] |
| --- | --- | --- | --- | --- |
| COC(=O)Nc1cc(-c2cnnc(-c3cc(NC(=O)c4cccc(C(C)(C)C#N)c4)ccc3C)c2)ccn1 [Example 311] | ≤ 100 | ≤ 100 | 1000 to 10000 | ≤ 100 |
| COC(=O)Nc1cc(-c2cc(-c3cc(NC(=O)c4ccnc(C(F)(F)F)c4)cnc3C)ccn2)ccn1 [Example 312] | 100 to 500 | ≤ 100 | 1000 to 10000 | ≤ 100 |
| COC(=O)Nc1cc(-c2cc(-c3cc(NC(=O)c4ccnc(C(F)F)c4)cnc3C)ccn2)ccn1 [Example 313] | 1000 to 10000 | ≤ 100 | 1000 to 10000 | ≤ 100 |
| CNC(=O)c1cc(-c2cnnc(-c3cc(NC(=O)c4ccnc(C(C)(C)C#N)c4)ccc3C)c2)ccn1 [Example 314] | 100 to 500 | 100 to 500 | 1000 to 10000 | 100 to 500 |
| Cc1ccc(NC(=O)c2ccnc(C(C)(C)F)c2)cc1-c1cc(-c2ccnc(NC(=O)C3CC3)c2)cnn1 [Example 315] | ≤ 100 | ≤ 100 | 500 to 1000 | ≤ 100 |
| CNC(=O)c1cc(-c2cnnc(-c3cc(NC(=O)c4ccnc(C(C)(C)C#N)c4)cnc3C)c2)ccn1 [Example 316] | 1000 to 10000 | 500 to 1000 | 1000 to 10000 | 100 to 500 |
| CNC(=O)c1cc(-c2cnnc(-c3cc(NC(=O)c4ccnc(C5CC5)c4)cnc3C)c2)ccn1 [Example 317] | 1000 to 10000 | 500 to 1000 | 1000 to 10000 | 100 to 500 |
| CNC(=O)c1cc(-c2cnnc(-c3cc(NC(=O)c4ccnc(C(F)(F)F)c4)cnc3C)c2)ccn1 [Example 318] | 1000 to 10000 | 500 to 1000 | 1000 to 10000 | 100 to 500 |
| COC(C)(C)c1cc(C(=O)Nc2ccc(C)c(-c3cc(-c4ccnc(NC(=O)C5CC5)c4)cnn3)c2)ccn1 [Example 319] | ≤ 100 | ≤ 100 | 1000 to 10000 | ≤ 100 |
| Cc1ccc(NC(=O)c2cn(C(C)C)nn2)cc1-c1cc(-c2ccnc(NC(=O)C3CC3)c2)cnn1 [Example 320] | 1000 to 10000 | ≤ 100 | 1000 to 10000 | ≤ 100 |
| Cc1ccc(NC(=O)c2cnn(C(C)(C)C)c2)cc1-c1cc(-c2ccnc(NC(=O)C3CC3)c2)cnn1 [Example 321] | 100 to 500 | ≤ 100 | 1000 to 10000 | ≤ 100 |
| CNC(=O)c1cc(-c2cnnc(-c3cc(NC(=O)c4ccc(Cl)c(OC)c4)cnc3C)c2)ccn1 [Example 322] | 1000 to 10000 | 1000 to 10000 | 1000 to 10000 | 1000 to 10000 |
| COC(=O)Nc1cc(-c2cc(-c3cc(NC(=O)c4ccnc(C(C)(C)F)c4)cnc3C)ccn2)ccn1 [Example 323] | 100 to 500 | ≤ 100 | 1000 to 10000 | ≤ 100 |
| CNC(=O)c1cc(-c2cnnc(-c3cc(NC(=O)c4ccnc(C(C)(C)F)c4)ccc3C)c2)ccn1 [Example 325] | 100 to 500 | 100 to 500 | 1000 to 10000 | 100 to 500 |
| CNC(=O)c1cc(-c2cnnc(-c3cc(NC(=O)c4ccnc(C5CC5)c4)ccc3C)c2)ccn1 [Example 326] | 1000 to 10000 | 100 to 500 | 1000 to 10000 | ≤ 100 |
| CNC(=O)c1cc(-c2cnnc(-c3cc(NC(=O)c4ccnc(C(F)F)c4)ccc3C)c2)ccn1 [Example 327] | 1000 to 10000 | 100 to 500 | 1000 to 10000 | ≤ 100 |
| CNC(=O)c1cc(-c2cnnc(-c3cc(NC(=O)c4ccnc(C(C)(C)OC)c4)ccc3C)c2)ccn1 [Example 328] | 100 to 500 | 500 to 1000 | 1000 to 10000 | 100 to 500 |
| CNC(=O)c1cc(-c2cnnc(-c3cc(NC(=O)c4ccc(F)c(C(F)(F)F)c4)ccc3C)c2)ccn1 [Example 329] | 500 to 1000 | 500 to 1000 | 1000 to 10000 | ≤ 100 |
| CNC(=O)c1cc(-c2cnnc(-c3cc(NC(=O)c4ccnc(C(F)F)c4)cnc3C)c2)ccn1 [Example 330] | 1000 to 10000 | 500 to 1000 | 1000 to 10000 | 100 to 500 |
| Cc1ccc(NC(=O)c2ccnc(C3CC3)c2)cc1-c1cc(-c2ccnc(NC(=O)C3CC3)c2)cnn1 [Example 331] | 100 to 500 | ≤ 100 | 1000 to 10000 | ≤ 100 |
